The test system of series [1] is S. aureus CECT 976. Nature of the series: MIC/MBC by broth microdilution, S. aureus CECT 976. The format is cell-based. As to conditions: Staphylococcus aureus. As for the experimental part:
The minimum inhibitory concentration (MIC) and minimum bactericidal concentration (MBC) values of all QHSs were determined by the broth microdilution method, according to the approved M7-A7 (aerobes) standards of the Clinical and Laboratory Standards Institute (CLSI) guidelines. Overnight cell cultures of S. aureus, in the exponential phase of growth, were adjusted to an optical density (OD) of 0.132 ± 0.02 (λ = 600 nm). Then, a volume of 180 µL of the cell suspension was added to sterile, flat, clear-bottomed polystyrene (PS) 96-well microtiter plates (VWR—Radnor, PA, USA), already containing 20 µL of each QHS under study at concentrations ranging from 0.0625 to 64 µg/mL. In the end, the volume of each compound never exceeded 10% (v/v) of the well volume. Microtiter plates were then incubated for 24 h at 37 °C under agitation (150 rpm; INCU-Line IL 150R incubator). Absorbance measurements were performed at the beginning (t = 0 h) and end (t = 24 h) of the incubation period using a microtiter plate absorbance reader (BMG LABTECH FLUOstar Omega). Bacterial suspensions with DMSO and without QHSs were used as negative controls. […] All tests were performed with six replicates and a minimum of three independent repeats.
Plates were incubated at 37 °C for 24 h, and growth was visually inspected. […] All tests were performed in triplicate, and with a minimum of three independent repeats.
For orientation: In broth dilution the organism is exposed to a series of concentrations in liquid medium.

The nature of series [2]: Chromatographic hydrophobicity index (CHI) by UHPLC. The format is physicochemical. As to conditions: for CHI: LC/UV at pH 2.6, calculated from retention time with the calibration line; for chromatographic logP: back-calculated from CHI at pH 2.6: CHI LogP = 0.047 × CHI + 0.36 × HBC − 1.10. On the procedure: The chromatographic hydrophobicity index (CHI) values were determined using the retention times (tR) of the samples under study and of a mixture of standard compounds on a UHPLC NEXERA SERIES LC-40 with a Luna C18 (2) column of 150 × 4.6 mm, 5 μm (Phenomenex, Torrance, CA, USA). Stock solutions of the test compounds (10 mM) were prepared in dimethyl sulfoxide (DMSO, 99.9%; Carlo Erba) and diluted in acetonitrile/water (1:1) to obtain a final concentration of 500 μM. The mobile phase A was 1.0% (v/v) aqueous acetic acid solution (pH = 2.6), and the mobile phase B was acetonitrile. The following gradient programme was applied: 1–7 min 0–100% B, 7–17 min 100% B, 17–19 min 100–0% B, 1 mL/min flow; rt, injection volume 40 μL.
A calibration line was obtained using a mixture of the following compounds: benzimidazole, theophylline, paracetamol, caffeine, colchicine, carbamazepine, indole, propiophenone, butyrophenone, valerophenone, and heptanophenone (Table S1 and Figure S50, Supplementary Materials). The experimental CHI values of the compounds tested at pH 2.6 were then converted to the logarithm of octanol/water partition coefficient (CHI LogP) values using Equation (1). CHI LogP = 0.047 × CHI + 0.36 × HBC − 1.10 (1) where HBC is the hydrogen bond donor count.

Where [3] appears, read: CECT976, S. aureus CECT 976, broth microdilution, 24 h, 37 °C, read-out: MIC.
Setting [4] is: CECT976, S. aureus CECT 976, broth microdilution, plated on PCA, read-out: MBC.

Read-outs that look alike come from different tables or passages of the source.

In general, MIC refers to the lowest concentration found to suppress growth. A word on the MBC: it is the smallest concentration meeting the test's criterion for killing. The term chromatographic logP denotes a lipophilicity value derived from retention on a column.

Turning to `CCCCCC[P+](c1ccccc1)(c1ccccc1)c1ccccc1` [Compound 1a, Hexyltriphenylphosphonium bromide], the MIC in series [1] (setting [3]) was 8 µg/mL. Moreover, in series [1] (setting [4]), the MBC was greater than 64 µg/mL. In series [2], the CHI is recorded as 60.58 and the chromatographic logP was 1.75.
In the case of `CCCCCCCC[P+](c1ccccc1)(c1ccccc1)c1ccccc1` [Compound 1b, Octyltriphenylphosphonium bromide], the MIC in series [1] (setting [3]) came out at 2 µg/mL. Besides, the MBC in series [1] (setting [4]) was 16 µg/mL. Besides, in series [2], the CHI was 71.06 and the chromatographic logP is 2.24.
Regarding `CCCCCCCCCC[P+](c1ccccc1)(c1ccccc1)c1ccccc1` [Compound 1c, Decyltriphenylphosphonium bromide], the MIC in series [1] (setting [3]) came out at 1 µg/mL. Besides, in series [1] (setting [4]), the MBC was 8 µg/mL. Further, in series [2], the CHI is recorded as 82.58 and the chromatographic logP is 2.78.
In series [1] (CECT976), `CCCCCCCCCCCC[P+](c1ccccc1)(c1ccccc1)c1ccccc1` [Compound 1d, Dodecyltriphenylphosphonium bromide] returned an MBC of 16 µg/mL. The MIC in series [1] (CECT976, 24 h) turned out to be 1 µg/mL. Besides, in series [2], the CHI was 94.50 and the chromatographic logP was 3.34.
For the molecule `CCCCCCCCCCCCCCCC[P+](c1ccccc1)(c1ccccc1)c1ccccc1` [Compound 1f, Hexadecyltriphenylphosphonium bromide], the MIC in series [1] (setting [3]) was 2 µg/mL. The MBC in series [1] (setting [4]) was 16 µg/mL. In series [2], the CHI is recorded as 115.5 and the chromatographic logP is 4.33.
The like results for `CCCCCCCCCCCCCCCCCC[P+](c1ccccc1)(c1ccccc1)c1ccccc1` [Compound 1g, Octadecyltriphenylphosphonium bromide] were, in that order, 4 µg/mL, 64 µg/mL, 128.2 and 4.93.
The molecule `CCCCCC[n+]1ccn(C)c1.[Br-]` [Compound 2a, 3-Hexyl-1-methyl-1H-imidazol-3-ium bromide] came in with an MBC in series [1] (CECT976) greater than 64 µg/mL. The molecule further gave a minimal inhibitory concentration (MIC) in series [1] (CECT976, 24 h) greater than 64 µg/mL. Also, in series [2], the CHI is 29.35 and the chromatographic logP was 0.279.
Regarding `CCCCCCCC[n+]1ccn(C)c1.[Br-]` [Compound 2b, 1-Methyl-3-octyl-1H-imidazol-3-ium bromide], in series [1] (setting [3]), the MIC was greater than 64 µg/mL. Also, the MBC in series [1] (setting [4]) is greater than 64 µg/mL. In series [2], the CHI is listed as 42.19 and the chromatographic logP is 0.883.
`CCCCCCCCCC[n+]1ccn(C)c1.[Br-]` [Compound 2c, 3-Decyl-1-methyl-1H-imidazol-3-ium bromide]: the MIC in series [1] (setting [3]) was determined as 16 µg/mL. The minimal bactericidal concentration (MBC) in series [1] (setting [4]) was greater than 64 µg/mL. In addition, in series [2], the CHI is on record as 54.51 and the chromatographic logP was 1.46.
Take `CCCCCCCCCCCC[n+]1ccn(C)c1.[Br-]` [Compound 2d, 3-Dodecyl-1-methyl-1H-imidazol-3-ium bromide]: in series [1] (setting [3]), the MIC came out at 1 µg/mL. Further, the MBC in series [1] (setting [4]) came to 16 µg/mL. The CHI in series [2] is 67.25.
For `CCCCCCCCCCCCCCCC[n+]1ccn(C)c1.[Br-]` [Compound 2f, 3-Hexadecyl-1-methyl-1H-imidazol-3-ium bromide], the MIC in series [1] (setting [3]) was determined as 4 µg/mL. Also, the MBC in series [1] (setting [4]) is 8 µg/mL. In series [2], the CHI is given as 95.91 and the chromatographic logP was 3.41.
Turning to `CCCCCCCCCCCCCCCCCC[n+]1ccn(C)c1.[Br-]` [Compound 2g, 1-Methyl-3-octadecyl-1H-imidazol-3-ium bromide], the minimum inhibitory concentration (MIC) in series [1] (setting [3]) was 8 µg/mL. Besides, the MBC in series [1] (setting [4]) worked out at 16 µg/mL. In series [2], the CHI was 109.2 and the chromatographic logP is 4.03.
As for `CCCCCC[n+]1ccc2ccccc2c1.[Br-]` [Compound 3a, 2-Hexylisoquinolin-2-ium bromide], the MIC in series [1] (setting [3]) is greater than 64 µg/mL. The MBC in series [1] (setting [4]) was greater than 64 µg/mL. In series [2], the CHI is 37.81 and the chromatographic logP is 0.677.
`CCCCCCCC[n+]1ccc2ccccc2c1.[Br-]` [Compound 3b, 2-Octylisoquinolin-2-ium bromide] displayed an MBC in series [1] (CECT976) greater than 64 µg/mL. Besides, inhibition of growth in series [1] (CECT976, 24 h) (MIC) required 64 µg/mL. Further, in series [2], the CHI is 50.02 and the chromatographic logP is 1.25.
For `CCCCCCCCCC[n+]1ccc2ccccc2c1.[Br-]` [Compound 3c, 2-Decylisoquinolin-2-ium bromide], the minimal inhibitory concentration (MIC) in series [1] (setting [3]) was 16 µg/mL. In series [1] (setting [4]), the MBC was determined as 64 µg/mL. Further, in series [2], the CHI was 61.62 and the chromatographic logP is 1.8.
Turning to `CCCCCCCCCCCC[n+]1ccc2ccccc2c1.[Br-]` [Compound 3d, 2-Dodecylisoquinolin-2-ium bromide], in series [1] (setting [3]), the MIC worked out at 2 µg/mL. In addition, in series [1] (setting [4]), the MBC was 16 µg/mL. Further, in series [2], the CHI is 74.48 and the chromatographic logP was 2.4.
Turning to `CCCCCCCCCCCCCCCC[n+]1ccc2ccccc2c1.[Br-]` [Compound 3f, 2-Hexadecylisoquinolin-2-ium bromide], in series [1] (setting [3]), the MIC came out at 4 µg/mL. In addition, in series [1] (setting [4]), the MBC is 8 µg/mL. For the same molecule, in series [2], the CHI was 100.8 and the chromatographic logP was 3.64.
For `CCCCCCCCCCCCCCCCCC[n+]1ccc2ccccc2c1` [Compound 3g], in that order: 8 µg/mL, 16 µg/mL, 113.1 and 4.21.
For `CCCCCC[n+]1ccc(C)cc1.[Br-]` [Compound 4a, 1-Hexyl-4-methylpyridin-1-ium bromide], the MIC in series [1] (setting [3]) is greater than 64 µg/mL. Also, the MBC in series [1] (setting [4]) is greater than 64 µg/mL. Further, in series [2], the CHI is recorded as 31.08 and the chromatographic logP was 0.361.
For the molecule `CCCCCCCC[n+]1ccc(C)cc1.[Br-]` [Compound 4b, 4-Methyl-1-octylpyridin-1-ium bromide], the MIC in series [1] (setting [3]) is greater than 64 µg/mL. Moreover, the MBC in series [1] (setting [4]) is greater than 64 µg/mL. For the same molecule, in series [2], the CHI is 43.90 and the chromatographic logP is 0.963.
Turning to `CCCCCCCCCC[n+]1ccc(C)cc1.[Br-]` [Compound 4c, 1-Decyl-4-methylpyridin-1-ium bromide], the MIC in series [1] (setting [3]) was determined as 32 µg/mL. Also, the MBC in series [1] (setting [4]) is greater than 64 µg/mL. For the same molecule, in series [2], the CHI is 55.99 and the chromatographic logP was 1.53.
In the case of `CCCCCCCCCCCC[n+]1ccc(C)cc1.[Br-]` [Compound 4d, 1-Dodecyl-4-methylpyridin-1-ium bromide], in series [1] (setting [3]), the MIC stood at 2 µg/mL. Besides, the MBC in series [1] (setting [4]) came to 16 µg/mL. Further, in series [2], the CHI is given as 68.96 and the chromatographic logP was 2.14.
As to `CCCCCCCCCCCCCCCC[n+]1ccc(C)cc1.[Br-]` [Compound 4f, 1-Hexadecyl-4-methylpyridin-1-ium bromide], the MIC in series [1] (setting [3]) was found to be 4 µg/mL. Also, the minimal bactericidal concentration (MBC) in series [1] (setting [4]) worked out at 8 µg/mL. Also, in series [2], the CHI was 96.77 and the chromatographic logP was 3.45.
For the molecule `CCCCCC[N+](CC)(CC)CC.[Br-]` [Compound 7a, N,N,N-Triethylhexan-1-aminium bromide], the minimal inhibitory concentration (MIC) in series [1] (setting [3]) is greater than 64 µg/mL. Also, in series [1] (setting [4]), the MBC was greater than 64 µg/mL.
With `CCCCCCCC[N+](CC)(CC)CC.[Br-]` [Compound 7b, N,N,N-Triethyloctan-1-aminium bromide], the minimal inhibitory concentration (MIC) in series [1] (setting [3]) was greater than 64 µg/mL. Moreover, the MBC in series [1] (setting [4]) is greater than 64 µg/mL.
In the case of `CCCCCCCCCC[N+](CC)(CC)CC.[Br-]` [Compound 7c, N,N,N-Triethyldecan-1-aminium bromide], the MIC in series [1] (setting [3]) is 64 µg/mL. The MBC in series [1] (setting [4]) is greater than 64 µg/mL.
For `CCCCCCCCCCCC[N+](CC)(CC)CC.[Br-]` [Compound 7d, N,N,N-Triethyldodecan-1-aminium bromide], in that order: 4 µg/mL and 16 µg/mL.
For `CCCCCCCCCCCCCCCC[N+](CC)(CC)CC.[Br-]` [Compound 7f, N,N,N-Triethylhexadecan-1-aminium bromide], in that order: 64 µg/mL and 64 µg/mL.
The like results for `CCCCCCCCCCCCCCCCCC[N+](CC)(CC)CC.[Br-]` [Compound 7g, N,N,N-Triethyloctadecan-1-aminium bromide] were, in that order, 16 µg/mL and 16 µg/mL.
